Experimental findings from patent US11492359B2, “Near-infrared nerve-sparing fluorophores” (OREGON HEALTH & SCIENCE UNIVERSITY, priority 2018, dated 2022) are described below.

A short description of series [1]: UV-Vis absorption and fluorescence spectroscopy of the Oxazine library. The series is classed as physicochemical. The conditions noted are these: for Extinction coefficient: Beer's Law plots; for Quantum yield: relative, references Oxazine 1, Oxazine 170, Rhodamine 101. How it is done: (§1) All reagents were purchased from Sigma Aldrich, Fisher Scientific, TCI, or Ark Pharm. Unless otherwise indicated, all commercially available starting materials were used directly without further purification. Analytical thin layer chromatography (TLC) was performed on Millipore ready-to-use plates with silica gel 60 (F254, 32-63 μm). Flash chromatography was performed on Sorbent Technologies silica gel for column chromatography or on a Biotage Isolera Flash System using SNAP Ultra cartridges. High-resolution mass spectra (HRMS) were measured on a ThermoElectron LTQ-Orbitrap high resolution mass spectrometer with a dedicated Accela HPLC system, or an Agilent 6244 time-of-flight LCMS with diode array detector VL+. LCMS and Purity Characterization Mass-to-charge ratio and purity of the Oxazine compounds were characterized on an Agilent 6244 time-of-flight tandem liquid chromatography mass spectroscopy (LCMS) with diode array detector VL+. Sample (10 μL) was injected into a C18 column (Poroshell 120, 4.6×50 mm, 2.7 micron), and eluted with a solvent system of A (H2O, 0.1% FA) and B (MeCN, 01.% FA) at 0.4 mL/min, from A/B=90/10 to 5/95 over 10 min, maintained at A/B=5/95 for additional 5 min. Ions were detected in positive ion mode by setting the capillary voltage at 4 kV and gas temperature at 350° C. Purity was calculated through area under the curve analysis of the absorbance at 254 nm. UV-Vis Absorption and Fluorescence Spectroscopy. UV-Vis spectra were collected with a Cary 50 UV-Vis spectrophotometer at room temperature, using a 1-cm quartz cuvette. Fluorescence spectra were collected on a Cary Eclipse fluorescence spectrophotometer (Agilent Technologies). All absorbance spectra were reference corrected. Extinction coefficient was calculated from Beer's Law plots of absorbance versus concentration. Fluorescence spectra were corrected for the wavelength dependent response of the R928 photomultiplier tube using a manufacturer generated correction file. Relative quantum yields are reported as the average of multiple measurements using multiple references, including Oxazine 1, Oxazine 170, and Rhodamine 101. Physicochemical Property Calculation. Physicochemical partition coefficients (Log D) values at pH 7.4, number of hydrogen bond donors and acceptors, polar surface area, and the number of rotatable bonds were calculated using Marvin and JChem calculator plugins (ChemAxon, Budapest, Hungary). Nerve-Specificity Screening using Direct/Topical Administration Each compound was screened for its tissue-specificity using a previously published direct/topical administration strategy in murine brachial plexus and sciatic nerves.^1 Each compound from the Oxazine library was formulated in the previously utilized co-solvent formulation (10% DMSO, 5% Kolliphor, 65% serum and 20% phosphate buffered saline) at 125 μM. 100 μL of the formulated Oxazine were incubated on the exposed brachial plexus or sciatic nerve for 5 minutes. The fluorophore containing solution was removed and the area was irrigated with saline 18 times to remove any unbound fluorophore. Co-registered fluorescence and color images were collected of each stained area 30 minutes after Oxazine direct/topical administration using a custom built macroscopic imaging system with 620/60 nm excitation and 700/75 nm bandpass emission filters. Custom written MatLab code was used to analyze the tissue specific fluorescence where regions of interest were selected on the nerve, muscle and adipose tissue using the white light images. These regions of interest were then analyzed on the co-registered matched fluorescence images permitting assessment of the nerve to muscle and nerve to adipose ratios in blinded manner. […]

For series [2], the system named is murine brachial plexus and sciatic nerves. Put plainly: Nerve-specificity screening using systemic administration. It is filed as in vivo. Particulars: for toxicity upon systemic administration / nerve specificity / nerve contrast (N/M vs control group) following systemic administration: IV; for toxicity upon systemic administration: mice; for nerve specificity / nerve contrast (N/M vs control group) following systemic administration: 200 nmol, 4 hours prior to imaging; for N/M and N/A ratios vs unstained control animals: systemic administration.

Series [3] has the same test system. The series can be described thus: Nerve-specificity screening using direct/topical administration. The series is classed as in vivo, mouse. The conditions noted are these: for nerve specificity (N/M contrast vs control group) via direct administration: 125 μM, imaged 30 minutes after staining; for N/M and N/A ratios vs unstained control animals: direct administration. Here is the method: as §1

For `CC/N=c1/cc2oc3c4c5c(cc3nc-2cc1C)CCCN5CCC4` [LGW01-99, (Z)—N-(11-methyl-2,3,6,7-tetrahydro-1H,5H,12H-quinolizino[1,9-bc]phenoxazin-12-ylidene)ethanaminium], in series [1], the “Max Abs” value is listed as 648 nm, the “Max Em” value is given as 667 nm, the “Max Ex” value is 650 nm and the Extinction coefficient came out at 56046 M⁻¹ cm⁻¹. The same compound gave a Quantum yield in series [1] of 10.14%. The “toxicity upon systemic administration” value in series [2] was “toxic upon systemic administration”.
Turning to `CCCNc1cc2oc3cc(=[N+](CC)CC)ccc-3nc2cc1C` [LGW04-31, N-ethyl-N-(8-methyl-7-(propylamino)-3H-phenoxazin-3-ylidene)ethanaminium], in series [3], the “nerve specificity (N/M contrast vs control group) via direct administration” value is given as “high nerve specificity”; the “N/M and N/A ratios vs unstained control animals” value (from here on “N/M and N/A ratios”) was “significantly higher N/M and N/A ratios than unstained control animals”. In addition, in series [1], the “Max Abs” value amounted to 641 nm, the “Max Em” value turned out to be 661 nm, the “Max Ex” value turned out to be 640 nm and the Extinction coefficient amounted to 59586 M⁻¹ cm⁻¹. Further, the Quantum yield in series [1] is 5.01%. Also, in series [2], the “nerve specificity / nerve contrast (N/M vs control group) following systemic administration” value is recorded as “high nerve specificity”; the “N/M and N/A ratios” value was “significantly higher N/M and N/A ratios than unstained control animals”.
As to `CC[N+](CC)=c1ccc2nc3cc4c(cc3oc-2c1)NCCO4` [LGW03-37, N-(3,4-dihydro-[1,4]oxazino[2,3-b]phenoxazin-8(2H)-ylidene)-N-ethylethanaminium], the “nerve specificity (N/M contrast vs control group) via direct administration” value in series [3] is “positive nerve specificity”. Besides, in series [1], the “Max Abs” value is reported as 646 nm, the “Max Em” value is 670 nm, the “Max Ex” value is given as 650 nm and the Extinction coefficient came to 48849 M⁻¹ cm⁻¹. The Quantum yield in series [1] amounted to 4.34%. Further, the “nerve specificity / nerve contrast (N/M vs control group) following systemic administration” value in series [2] is given as “negative for nerve contrast”.
Regarding `CC/N=c1/cc2oc3cc(NCC)c(F)cc3nc-2cc1F` [LGW05-91, (Z)—N-(7-(ethylamino)-2,8-difluoro-3H-phenoxazin-3-ylidene)ethanaminium], the “nerve specificity (N/M contrast vs control group) via direct administration” value in series [3] was “positive nerve specificity”. Besides, in series [1], the “Max Abs” value amounted to 606 nm, the “Max Em” value amounted to 626 nm, the “Max Ex” value was 610 nm and the Extinction coefficient stood at 16763 M⁻¹ cm⁻¹. In addition, in series [1], the Quantum yield worked out at 33.45%. For the same compound, in series [2], the “nerve specificity / nerve contrast (N/M vs control group) following systemic administration” value was “negative for nerve contrast”.
In the case of `CC/N=c1/cc2oc3cc(N)ccc3nc-2cc1C` [LGW06-97, (Z)—N-(7-amino-2-methyl-3H-phenoxazin-3-ylidene)ethanaminium], the “nerve specificity (N/M contrast vs control group) via direct administration” value in series [3] was “positive nerve specificity”. For the same compound, in series [1], the “Max Abs” value is on record as 599 nm, the “Max Em” value is reported as 617 nm, the “Max Ex” value was 600 nm and the Extinction coefficient came to 38616 M⁻¹ cm⁻¹. The same compound showed a Quantum yield in series [1] of 25.39%. In series [2], the “nerve specificity / nerve contrast (N/M vs control group) following systemic administration” value was “negative for nerve contrast”.
For `CCC/N=c1/cc2oc3cc(NCCC)c(C)cc3nc-2cc1C` [LGW01-64, (Z)—N-(2,8-dimethyl-7-(propylamino)-3H-phenoxazin-3-ylidene)propan-1-aminium], in series [3], the “nerve specificity (N/M contrast vs control group) via direct administration” value is given as “positive nerve specificity”. In series [1], the “Max Abs” value stood at 620 nm, the “Max Em” value is recorded as 638 nm, the “Max Ex” value amounted to 620 nm and the Extinction coefficient was 50166 M⁻¹ cm⁻¹. In series [1], this compound returned a Quantum yield of 42.15%. Further, in series [2], the “nerve specificity / nerve contrast (N/M vs control group) following systemic administration” value was “negative for nerve contrast” and the “toxicity upon systemic administration” value was “toxic upon systemic administration”.
With `CC[N+](CC)=c1ccc2nc3ccc(N(C)C)cc3oc-2c1` [LGW03-76, N-(7-(dimethylamino)-3H-phenoxazin-3-ylidene)-N-ethylethanaminium], in series [3], the “nerve specificity (N/M contrast vs control group) via direct administration” value is “high nerve specificity”; the “N/M and N/A ratios” value was “significantly higher N/M and N/A ratios than unstained control animals”. In series [1], the “Max Abs” value was found to be 654 nm, the “Max Em” value worked out at 669 nm, the “Max Ex” value was 655 nm and the Extinction coefficient amounted to 66111 M⁻¹ cm⁻¹. The compound also showed a Quantum yield in series [1] of 7.99%. In series [2], the “nerve specificity / nerve contrast (N/M vs control group) following systemic administration” value is “high nerve specificity”; the “N/M and N/A ratios” value was “significantly higher N/M and N/A ratios than unstained control animals”.
For `CC/N=c1/cc2oc3cc(NCC)cc(C)c3nc-2c(C)c1` [LGW02-95, (E)-N-(7-(ethylamino)-1,9-dimethyl-3H-phenoxazin-3-ylidene)ethanaminium], in series [3], the “nerve specificity (N/M contrast vs control group) via direct administration” value was “positive nerve specificity”. In series [1], the “Max Abs” value is reported as 606 nm, the “Max Em” value was 627 nm, the “Max Ex” value was 605 nm and the Extinction coefficient was determined as 48653 M⁻¹ cm⁻¹. In addition, in series [1], the Quantum yield was determined as 32.50%. Besides, the “nerve specificity / nerve contrast (N/M vs control group) following systemic administration” value in series [2] is reported as “negative for nerve contrast”.
Regarding `CC/N=c1/cc2oc3cc(NCC)cc(C)c3nc-2cc1C` [LGW02-59, (Z)—N-(7-(ethylamino)-2,9-dimethyl-3H-phenoxazin-3-ylidene)ethanaminium], in series [1], the “Max Abs” value amounted to 611 nm, the “Max Em” value is on record as 636 nm, the “Max Ex” value stood at 615 nm and the Extinction coefficient worked out at 41229 M⁻¹ cm⁻¹. In addition, in series [1], the Quantum yield was determined as 31.74%.
For `CCN1CCOc2cc3nc4ccc(=[N+](CC)CC)cc-4oc3cc21` [LGW05-65, N-ethyl-N-(4-ethyl-3,4-dihydro-[1,4]oxazino[2,3-b]phenoxazin-8(2H)-ylidene)ethanaminium], in that order: 661 nm, 684 nm, 665 nm, 61535 M⁻¹ cm⁻¹ and 7.85%.
The corresponding values for `CC/N=c1\ccc2nc3ccc(NCC)c(C)c3oc-2c1C` [LGW02-57, (E)-N-(7-(ethylamino)-4,6-dimethyl-3H-phenoxazin-3-ylidene)ethanaminium] are 635 nm, 653 nm, 635 nm, 56713 M⁻¹ cm⁻¹ and 11.15%.
The corresponding values for `CC/N=c1/cc2oc3cc(N4CCCC4)ccc3nc-2cc1C` [LGW03-06, (Z)—N-(2-methyl-7-(pyrrolidin-1-yl)-3H-phenoxazin-3-ylidene)ethanaminium] are 640 nm, 661 nm, 640 nm, 35942 M⁻¹ cm⁻¹ and 11.94%.
In the case of `CCCNc1cc2oc3c/c(=N/CC)c(C)cc-3nc2cc1C` [LGW04-32, (Z)—N-(2,8-dimethyl-7-(propylamino)-3H-phenoxazin-3-ylidene)ethanaminium], in series [1], the “Max Abs” value is 620 nm, the “Max Em” value was 638 nm, the “Max Ex” value is reported as 620 nm and the Extinction coefficient was found to be 61084 M⁻¹ cm⁻¹. In addition, the Quantum yield in series [1] amounted to 39.77%.
